Results taken from patent publication US4973578A, “Synthetic peptides derived from the alpha-subunit of human lycoprotein hormones” (Mayo Foundation for Medical Education and Research, priority 1988, dated 1990).
Several values for one entry are separate records, joined by “and”; a condition that tells them apart may be missing. Identical values can stand only once. Residues, ends and D or L forms follow the SMILES beside them.

Assays:
Format in all cases: cell-based, rat
[1] = system: cAMP production (adenylate cyclase activity) in FRTL-5 cells; assay: TSH bioassay, cAMP stimulation in FRTL-5 cells; settings: at least 2 separate assays
Protocol: (§1) FRTL-5 cells were maintained in Ham's F-12 medium supplemented with 5% calf serum and a 6 hormone preparation including 10 mU/ml bTSH as described by Ambesi-Impiombato et al., Proc. Natl. Acad. Sci. U.S.A., 77:3455 (1980), the disclosure of which is incorporated herein. For all assays herein described, the cells were plated in 24 well plates and grown for 3 days at 37° C. then maintained for 5-7 days in medium supplemented with 10 ug insulin alone prior to assay.
(§2) The bioassay was a modification of those previously described by Bidey et al, J. Endocrinol., 101:269 (1984); and Kasagi et al., ACTA Endocrinol., 115:30 (1987). To duplicate culture wells were added varying concentrations of test materials (see below) in a final volume of 300 ul of NaCl free HBSS with 0.5 mM iso-butyl-methyl-xanthine (IBMX, Sigma, St. Louis). In stimulation assays, only synthetic α-subunit peptides were added to the incubation medium. […] Basal cAMP levels were determined in the presence of HBSS and IBMX alone. In inhibition assays percent inhibition was calculated as follows: [formula]
The standard curve for TSH is shown in FIG. 3 and reports TSH deprived FRTL-5 cells incubated for 2 hrs. in buffer (NaCl-free HBSS, 200 mM sucrose, 0.5% BSA, 0.5 mM IBMX) with increasing concentrations of bTSH. cAMP released into the incubation media was measured by RIA. […]

[2] = system: thyroid stimulating immunoglobulin (TSI) stimulated cAMP in FRTL-5 cells; assay: TSI bioassay: inhibition of thyroid stimulating immunoglobulin activity (PEG-precipitated patient immunoglobulin) in FRTL-5 cells; settings: for Percent inhibition of TSI activity, mean: mean of patient samples tested
From the text: Ten patients (8 women and 2 men) with Graves' disease and high levels of TSI were identified after evaluation by FRTL-5 cell bioassay in the clinical chemistry laboratory. (FRTL-5 bioassay described below employing known TSH receptor recognition of various species hormones) Consecutive samples that had indices greater than 15 and sufficient serum remaining for further evaluation were chosen. Seven of the 10 had serum thyroxine values above the normal range and 9 of 10 had TSH levels below the euthyroid range by sensitive immunoradiometric assay [Boots-Celltech Sucrosep, Berkshire, UK, conducted as described in Klee and Hay, J. Clin. Endocrinol. Metab., 64:461 (1987)]. (FIG. 5). For comparison serum from 13 normal subjects was examined for TSI at the same serum dilution as the patient sera. (FIG. 5).
FRTL-5 cells were maintained in Ham's F-12 medium supplemented with 5% calf serum and a 6-hormone preparation (6H) as described by Ambesi-Impiombato, supra. The cells were removed from flasks enzymatically, plated at 150,000 cells per well in 24 well plates, and grown in 6H medium for 4 days. The medium was then replaced with fresh medium supplemented with insulin only (1H) for 7 days prior to assay. The bioassay was a modification of that described by Kasagi et al., supra. Briefly, immunoglobulins were precipitated from 2 ml of serum with 6 ml 20% polyethylene glycol 6000 (Baker, Phillipsburg, N.J.), centrifuged at 2800×g for 20 minutes, and then reconstituted in 2.4 ml buffer (NaCl-free Hanks balanced salt solution, NaCl-free HBSS), containing 1 mM iso-butyl-methyl-xanthine (IBMX, Sigma, St. Louis) and 1.5% BSA. After washing the cells with HBSS, 150 ul of buffer was added to the wells plus varying concentrations of synthetic α-subunit peptides followed immediately by 150 ul of the crude immunoglobulin extract. The plates were incubated for 2 hours at 37° C., 5% CO2 after which 100 ul of medium was removed and diluted in 900 ul 50 mM sodium acetate buffer, pH 6.2. cAMP content was determined by radioimmunoassay using the procedures described in Wray and Glinos, supra and Steiner et al., supra. Basal cAMP levels were determined in the absence of immunoglobulin extract and synthetic peptides for each plate. Basal and maximum levels were determined in quadruplicate; peptide effects were measured in duplicate at each concentration.
Percent increase in cAMP levels over basal was calculated as below: [formula]
Percent inhibition of TSI activity by the synthetic α-subunit peptides was calculated as follows: [formula]
cAMP levels in the presence of synthetic peptides were compared to maximum levels using student's T test for paired samples. Mean percent inhibition between different peptides were compared with student's T test for independent samples. Correlations were determined by Pearson's R.

[3] = system: TSH mediated cAMP generation in FRTL-5 cells; assay: Inhibition of TSH mediated cAMP generation in FRTL-5 cells; settings: 200 mU/L bTSH, 2 hrs 37° C.
Protocol: as §1
as §2, with “medium. For inhibition assays, the noted concentrations of synthetic α-subunit peptides were added immediately prior to the addition of 200 mU/L bTSH. The plates were incubated at 37° C. in 5% CO2 for 2 hrs then 100 ul of incubation medium was removed and diluted in 900 ul of 0.05M sodium acetate pH 6.2 and assayed for cAMP content by RIA in accordance with procedures described by Wray and Glinos, Am. J. Physiol., 234 (Cell Phisol. 3):C131(1978)); and Steiner et al., J. Biol. Chem., 247:1106 (1972).” for “medium.”
FIG. 4 reports data obtained for TSH deprived FRTL-5 cells incubated with a fixed amount of bTSH (200 mU/l) by itself or with various concentrations of synthetic peptides. cAMP content of medium was measured after 2 hrs. incubation at 37° C. Percent inhibition of cAMP generation was calculated as noted above.

## CSCC[C@H](NC(=O)[C@H](CS)NC(=O)[C@H](CCC(N)=O)NC(=O)[C@@H](N)CC(C)C)C(=O)NCC(=O)N[C@@H](CS)C(=O)N[C@@H](CS)C(=O)N[C@@H](Cc1ccccc1)C(=O)N[C@@H](CO)C(=O)N[C@@H](CCCNC(=N)N)C(=O)N[C@@H](C)C(=O)N[C@@H](Cc1ccc(O)cc1)C(=O)N1CCC[C@H]1C(=O)N[C@H](C(=O)N1CCC[C@H]1C(=O)N[C@@H](CC(C)C)C(=O)N[C@@H](CCCNC(=N)N)C(=O)N[C@@H](CO)C(=O)N[C@@H](CCCCN)C(=O)N[C@@H](CCCCN)C(=O)N[C@H](C(N)=O)[C@@H](C)O)[C@@H](C)O [α26-46, Leu--Gln--Cys--Met--Gly--Cys--Cys--Phe--Ser--Arg--Ala--Tyr--Pro--Thr--Pro--Leu--Arg--Ser--Lys--Lys--Thr--(NH2)] (H-LQCMGCCFSRAYPTPLRSKKT-NH2)
[1]
  stimulation of cAMP levels over basal by peptide alone, in words: no ability to stimulate cAMP production
[2]; Graves' disease patient samples
  patient samples in which peptide showed an inhibitory effect / lowered cAMP levels: 10 of 10
[2]; Pt. sample A, peptide 66.7 ug/ml
  Percent inhibition of TSI activity: 62.1%
[2]; Pt. sample A, peptide 133 ug/ml
  Percent inhibition of TSI activity: 125.3±3% and 125.3%
[2]; Pt. sample B, peptide 66.7 ug/ml
  Percent inhibition of TSI activity: 14.3%
[2]; Pt. sample B, peptide 133 ug/ml
  Percent inhibition of TSI activity: 125.0%
[2]; Pt. sample C, peptide 66.7 ug/ml
  Percent inhibition of TSI activity: 29.1%
[2]; Pt. sample C, peptide 133 ug/ml
  Percent inhibition of TSI activity: 86.4%
[2]; Pt. sample D, peptide 66.7 ug/ml
  Percent inhibition of TSI activity: 9.1%
[2]; Pt. sample D, peptide 133 ug/ml
  Percent inhibition of TSI activity: 85.7%
[2]; Pt. sample E, peptide 66.7 ug/ml
  Percent inhibition of TSI activity: 42.0%
[2]; Pt. sample E, peptide 133 ug/ml
  Percent inhibition of TSI activity: 85.9%
[2]; Pt. sample F, peptide 66.7 ug/ml
  Percent inhibition of TSI activity: 19.8%
[2]; Pt. sample F, peptide 133 ug/ml
  Percent inhibition of TSI activity: 57.8%
[2]; Pt. sample G, peptide 66.7 ug/ml
  Percent inhibition of TSI activity: 43.1%
[2]; Pt. sample G, peptide 133 ug/ml
  Percent inhibition of TSI activity: 77.2%
[2]; Pt. sample H, peptide 66.7 ug/ml
  Percent inhibition of TSI activity: 14.7%
[2]; Pt. sample H, peptide 133 ug/ml
  Percent inhibition of TSI activity: 52.5%
[2]; Pt. sample I, peptide 66.7 ug/ml
  Percent inhibition of TSI activity: 4.2%
[2]; Pt. sample I, peptide 133 ug/ml
  Percent inhibition of TSI activity: 38±9.7% and 38.0%
[2]; Pt. sample J, peptide 66.7 ug/ml
  Percent inhibition of TSI activity: 36.0%
[2]; Pt. sample J, peptide 133 ug/ml
  Percent inhibition of TSI activity: 57.7%
[2]; peptide 66.7 ug/ml
  Percent inhibition of TSI activity, mean: 27.5%
[2]; peptide 133 ug/ml
  Percent inhibition of TSI activity, mean: 79.1±8.8% and 79.1%
  patient Ig samples with statistically significant inhibition of cAMP: 10
[3]; peptide 33.3 ug/ml
  percent inhibition of TSH mediated cAMP generation: 65.0±2.6% and 64.97%
[3]; peptide 66.7 ug/ml
  percent inhibition of TSH mediated cAMP generation: 95.6±3.1% and 95.62%
[3]; peptide 133.3 ug/ml
  percent inhibition of TSH mediated cAMP generation: 106±0.8% and 106.70%
